The numbers were not newly measured in patent US20190256487A1, “HYDROXYN[…]” (BioPharmaWorks, LLC, priority 2016, published 2019), which cites them from elsewhere.

For data set [1] the following is noted: mice.
The conditions of data set [2]: mice. The source holds these as a separate data set.

In the case of `N[C@@]1(c2ccccc2Cl)CCC[C@@H](O)C1=O` [(2R,6R)-HNK, (2R,6R)-hydroxynorketamine], in data set [1], the antidepressant actions result is “rapid and sustained antidepressant actions”. Also, the ketamine-related side effects entry in data set [2] is recorded as “lacks ketamine-related side effects”.
